Peptide text beside a SMILES is read from it.
How the values were obtained:
[1] = biological target: T1, human WSX-1, human CNTF receptor and human gp130 overexpressed in F11 cells (Homo sapiens, UniProt Q6UWB1); test: Immunofluorescence-based HN binding assay (1) after ectopic overexpression of receptor genes in F11 cells; conditions: large amount (10 μM) of non-labeled peptide
T1 construct: His; V5 (C); expressed in transfected cells; host or cells: F11 cells
T1 sequence (Q6UWB1 33-636): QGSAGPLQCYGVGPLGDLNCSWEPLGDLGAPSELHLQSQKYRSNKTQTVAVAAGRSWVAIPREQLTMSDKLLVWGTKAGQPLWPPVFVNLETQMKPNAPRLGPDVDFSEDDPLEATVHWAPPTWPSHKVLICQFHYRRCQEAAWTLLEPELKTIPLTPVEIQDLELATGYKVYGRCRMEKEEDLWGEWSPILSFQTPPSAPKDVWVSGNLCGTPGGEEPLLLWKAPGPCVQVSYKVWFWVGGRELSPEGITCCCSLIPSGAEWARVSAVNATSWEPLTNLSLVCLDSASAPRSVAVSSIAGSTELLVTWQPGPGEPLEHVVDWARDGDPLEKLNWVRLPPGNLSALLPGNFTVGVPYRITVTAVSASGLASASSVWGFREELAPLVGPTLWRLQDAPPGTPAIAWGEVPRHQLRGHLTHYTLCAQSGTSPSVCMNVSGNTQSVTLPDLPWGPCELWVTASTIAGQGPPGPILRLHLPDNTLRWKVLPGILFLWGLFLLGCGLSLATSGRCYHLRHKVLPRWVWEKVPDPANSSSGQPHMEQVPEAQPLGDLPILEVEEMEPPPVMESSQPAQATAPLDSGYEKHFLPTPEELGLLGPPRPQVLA
T1 sequence (P40189 23-918 partner): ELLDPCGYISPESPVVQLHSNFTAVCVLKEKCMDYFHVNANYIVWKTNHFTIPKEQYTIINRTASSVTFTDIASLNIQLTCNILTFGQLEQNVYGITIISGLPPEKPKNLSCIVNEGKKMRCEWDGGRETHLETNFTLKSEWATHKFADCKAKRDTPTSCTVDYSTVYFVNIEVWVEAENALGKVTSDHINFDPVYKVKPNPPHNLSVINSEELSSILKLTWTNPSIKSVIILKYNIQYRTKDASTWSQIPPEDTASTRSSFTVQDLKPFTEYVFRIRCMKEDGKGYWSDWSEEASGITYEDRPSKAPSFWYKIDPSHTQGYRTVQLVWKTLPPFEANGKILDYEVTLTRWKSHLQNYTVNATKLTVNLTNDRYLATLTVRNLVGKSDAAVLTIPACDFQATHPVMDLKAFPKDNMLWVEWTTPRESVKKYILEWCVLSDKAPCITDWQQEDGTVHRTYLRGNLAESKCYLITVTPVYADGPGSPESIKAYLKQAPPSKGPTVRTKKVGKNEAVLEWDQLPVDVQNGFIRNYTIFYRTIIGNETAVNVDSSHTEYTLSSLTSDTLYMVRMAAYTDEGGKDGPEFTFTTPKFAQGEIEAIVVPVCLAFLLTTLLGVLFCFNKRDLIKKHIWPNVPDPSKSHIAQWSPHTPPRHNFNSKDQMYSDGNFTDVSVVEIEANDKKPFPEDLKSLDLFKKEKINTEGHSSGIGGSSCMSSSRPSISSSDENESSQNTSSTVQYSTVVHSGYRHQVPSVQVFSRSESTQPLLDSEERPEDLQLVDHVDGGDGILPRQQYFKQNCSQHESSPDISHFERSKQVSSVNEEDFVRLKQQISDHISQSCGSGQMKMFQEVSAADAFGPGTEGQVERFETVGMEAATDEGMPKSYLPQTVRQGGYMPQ
Procedure: A) F11 cells were transfected with 0.5 μg of the pEF/BOS vector, pEF-mycHis CREME9, pEF-mycHishuman WSX-1, or pEF-V5-human CNTF-R in association with 0.5 μg of pCAG-human gp130, or transfected with 0.5 μg of pEF-mycHis human WSX-1 and pEF-V5-human CNTF-R and pCAG-human gp130. To keep the total amounts of transfected vectors to be 1.5 μg, an appropriate amount of the pEFBOS vector was added. The graphs show the results of a binding amount of the biotin-labeled HN to each transfected cell by the detection of immunofluorescence reaction. The protein expression by immunoblot analysis is shown below in photos.
B) F11 cells were transfected with 0.5 μg of pEF-myc His human CREME9 or pEF-mycHis human WSX-1 in association with 0.5 μg of pCAG-human gp130. For competition, 10 μM of non-labeled (cold) HNG or HNA was added for some experiments. Fluorescence signals were detected with a laser-scanning, confocal microscope LSM (Carl Zeiss, Germany) (right panels).
F11 cells (7×10^4/well in 6-well plates) were replated into 96-well plates (7×10^3 cells/well) at 24 hrs after transfection with indicated amounts of the plasmids encoding mycHis-WSX or V5-CNTF-R, and with PCAG-human gp130 if required. […] Immunofluorescence intensity was measured (excitation=485 nm, emission=535 nm) with a spectrofluorometer (Wallac1420 ARVOsx Multi Label Counter). […]

[2] = tested on: neuronal cell death by AD-related insults; conditions: cited from earlier work

Compound | effect of unlabeled peptide on binding of HN to cells expressing WSX-1 and gp130 [1] | potency relative to HN [2] | HN activity of the mutant ([2]; negative control)
CC[C@H](C)[C@H](NC(=O)[C@H](CCC(=O)O)NC(=O)CNC(=O)[C@@H](NC(=O)[C@H](CC(C)C)NC(=O)[C@H](CC(C)C)NC(=O)[C@H](CC(C)C)NC(=O)[C@H](CC(C)C)NC(=O)[C@H](CS)NC(=O)[C@H](CO)NC(=O)[C@H](Cc1ccccc1)NC(=O)CNC(=O)[C@H](CCCNC(=N)N)NC(=O)[C@@H]1CCCN1C(=O)[C@H](C)NC(=O)[C@@H](N)CCSC)[C@@H](C)O)C(=O)N[C@@H](CC(=O)O)C(=O)N[C@@H](CC(C)C)C(=O)N1CCC[C@H]1C(=O)N[C@H](C(=O)N[C@@H](CCCCN)C(=O)N[C@@H](CCCNC(=N)N)C(=O)N[C@@H](CCCNC(=N)N)C(=O)N[C@@H](C)C(=O)O)C(C)C [HNG, S14 G-Humanin] (H-MAPRGFSCLLLLTGEIDLPVKRRA-OH; N-terminus and C-terminus assumed) | nullified | 1000 fold | –
C8A-Humanin (MAPRGFSALLLLTSEIDLPVKRRA) [HNA] | not | – | null activity

Reference: US8173771B2, “Humanin receptor or humanin-like polypeptide receptor” (Keio Univeristy, priority 2005, dated 2012)
